Values joined by “and” are separate entries in the source; they are usually repeats but may differ in a detail not shown here. Identical values can stand only once.
Experiments:
[1] = Plasma concentration of inogatran during intraperitoneal minipump infusion; format: in vivo, rat
Source text: (§1) The serosal surfaces of the stomachs of adult, anaesthetised rats were exposed in an area 7 mm diameter to 80% acetic acid over 60 seconds and then rinsed with buffered saline.

[2] = as above; format: in vivo, rat; settings: for Mean Plasma Conc.: two rats
[3] = system: fibrin-related adhesions between the stomach and the liver, the intestines and the omentum; assay: Acetic acid injury to the serosal surface of the rat stomach: formation of adhesions; format: in vivo; settings: for Adherences score: day 7
Protocol: The serosal surface of the stomach of an adult anaesthetised rat was exposed in an area of 7 mm diameter to 80% acetic acid over 60 seconds. After rinsing with buffered saline solution, an osmotic minipump (Alza 2001, volume about 220 μL; pumping rate about 1 μL/h; Alza Corp.; Palo Alto, Calif., USA; prefilled with a solution of the thrombin inhibitor melagatran, 2-100 μg/mL) was implanted into the peritoneal cavity, with the outlet of the pump kept open, and delivered its content into the abdominal cavity. The wounded area was covered by a chitosan membrane or, in an alternative experiment, a gel, having a diameter several millimeters larger than that of the injured area.
The serosal surface of the stomach of an adult, anaesthetised rat was exposed in an area of 7 mm diameter to 80% acetic acid over 60 seconds. After rinsing with buffered saline, the wounded area was covered by a chitosan membrane or, in an alternative experiment, a gel, having a diameter several millimeters larger than the injured area. An osmotic minipump (Alza 2001, volume about 220 μL; pumping rate about 1 μL/h; Alza Corp.; Palo Alto, Calif., USA; prefilled with a solution of the thrombin inhibitor melagatran, 2-100 μg/mL) was implanted subcutaneously, with the outlet of the pump kept open, delivering its content into the adjacent tissue. […]

[4] = Bleeding observations during inogatran minipump infusion; format: in vivo, rat; settings: day 7
Source text: as §1

[5] = system: adhesions between injured area and adjacent muscles, muscle fascia, vessels, nerves and skin; assay: Surgical removal of thigh muscle fascia in rat: adhesions inspected after 10 days; format: in vivo; settings: subcutaneous minipump 0.2×100μg/mL, versus untreated animals
Source text: An incision was made in the thigh through the skin into the muscle tissue in an anaesthetised adult rat, and the muscle fascia was surgically removed in a defined area (about 10×15 mm). The wound was sutured, and eventually opened for inspection after 10 days. Numerous adhesions were recognized, and the presence of granulation tissue were noticed to connect and lock the injured area to adjacent muscles, muscle fascia, vessels and nerves as well as to the skin.
An incision was made in the thigh through the skin into the muscle tissue in an anaesthetised adult rat and the muscle fascia was surgically removed in a defined area (about 10×15 mm). The muscle fascia was covered by a chitosan membrane or, in an alternative experiment, a gel, to which was connected a tube from an osmotic minipump, which had been implanted subcutaneously (Alza 2001, total volume about 220 μL; pumping rate about 1 μL/h; Alza Corp.; Palo Alto, Calif., USA; prefilled with a solution of the thrombin inhibitor melagatran, 0.2×100μg/mL). The wound was then sutured, and eventually opened and inspected after 10 days.

[6] = infusion rate 1*10 μL/h, 658 μg/h
[7] = infusion rate 2*10 μL/h, 1317 μg/h

## N=C(N)NCCCNC(=O)[C@@H]1CCCCN1C(=O)[C@@H](CC1CCCCC1)NCC(=O)O [inogatran, HOOC--CH2 --(R)Cha-Pic-Nag-H]
[1]; infusion rate 1*1 μL/h, 66 μg/h (124 and 142 μg/kg/h), day 1
  Plasma Conc.: 580 nM and 610 nM
[1]; infusion rate 1*1 μL/h, 66 μg/h (124 and 142 μg/kg/h), day 7
  Plasma Conc.: 170 nM and 190 nM
[1]; infusion rate 1*10 μL/h, 658 μg/h (1327 and 1351 μg/kg/h), day 7
  Plasma Conc.: 1880 nM and 1790 nM
[1]; infusion rate 2*1 μL/h, 132 μg/h (269 and 248 μg/kg/h), day 1
  Plasma Conc.: 470 nM and 460 nM
[1]; infusion rate 4*1 μL/h, 264 μg/h (588 and 558 μg/kg/h), day 1
  Plasma Conc.: 1270 nM and 810 nM
[1]; infusion rate 4*1 μL/h, 264 μg/h (588 and 558 μg/kg/h), day 2
  Plasma Conc.: 470 nM and 890 nM
[1]; infusion rate 4*1 μL/h, 264 μg/h (588 and 558 μg/kg/h), day 7
  Plasma Conc.: 570 nM and 870 nM
[1]; infusion rate 4*1 μL/h, 264 μg/h, two rats, day 7
  Mean Plasma Conc.: 720 nM
[2]; infusion rate 1*1 μL/h, 66 μg/h, day 7
  Mean Plasma Conc.: 180 nM
[2]; infusion rate 1*10 μL/h, 658 μg/h, day 7
  Mean Plasma Conc.: 1840 nM
[2]; infusion rate 2*1 μL/h, 132 μg/h (269 and 248 μg/kg/h), day 7
  Plasma Conc.: 240 nM and 370 nM
[2]; infusion rate 2*1 μL/h, 132 μg/h, day 7
  Mean Plasma Conc.: 310 nM
[2]; infusion rate 2*10 μL/h, 1317 μg/h (2761 μg/kg/h), day 1
  Plasma Conc.: 4440 nM
[2]; infusion rate 2*10 μL/h, 1317 μg/h (2761 μg/kg/h), day 2
  Plasma Conc.: 2820 nM
[2]; infusion rate 2*10 μL/h, 1317 μg/h (2761 μg/kg/h), day 7
  Plasma Conc.: 5560 nM
[3]; infusion rate 1*1 μL/h, 66 μg/h
  Adherences score: 3 and 4
[3]; [6]
  Adherences score: 0
[3]; infusion rate 2*1 μL/h, 132 μg/h
  Adherences score: 2
[3]; [7]
  Adherences score: 0
[3]; intraperitoneal minipump(s) 65.86 μg/μL, 1 to 20 μL/h, for a week
  formation of adhesions, dose dependence: prevented in a dose-response related manner
[4]; [6]
  bleeding observation: Minor Tendency to Bleed
[4]; [7]
  bleeding observation: Diffuse Bleeding

## N=C(N)c1ccc(CNC(=O)[C@@H]2CCN2C(=O)[C@H](NCC(=O)O)C2CCCCC2)cc1 [melagatran, HOOC--CH2 --(R)Cgl-Aze-Pab-H]
[5]; tube connected to chitosan membrane or gel over the muscle fascia
  severity and dimensions of the adhesions formed between adjacent structures: strikingly reduced
[5]; tube connected to chitosan membrane or gel
  granulation tissue connecting and locking the injured area to adjacent structures: largely not connecting
[3]; 100 μL of 100-500 μg/mL solution dripped daily onto chitosan membrane or gel, after 2 to 5 days
  bridging tissue (adhesions) between the stomach and the liver, the intestines and the omentum: absolutely no bridging tissue
[3]; intraperitoneal minipump 2-100 μg/mL, outlet connected to chitosan membrane or gel, up to 10 days
  fibrin network or strands of granulation tissue between the stomach and the liver, the intestines and the omentum: No fibrin network or strands of granulation tissue could be detected
[3]; intraperitoneal minipump 2-100 μg/mL, outlet open into abdominal cavity, wound covered by chitosan membrane or gel, up to 10 days
  fibrin network or strands of granulation tissue between the stomach and the liver, the intestines and the omentum: No fibrin network, nor any strands of granulation tissue, could be detected
[3]; minipump in peritoneal cavity, 2-100 μg/mL, about 1 μL/h, no polysaccharide, up to 10 days
  adhesions between the stomach and the liver, the intestines and the omentum: only scattered, delicate adhesions
[3]; subcutaneous minipump 2-100 μg/mL, outlet open, wound covered by chitosan membrane or gel, up to 14 days
  fibrin network or strands of granulation tissue between the stomach and the liver, the intestines and the omentum: No fibrin network, nor any strands of granulation tissue, could be detected

## hirudin
[3]; intraperitoneal minipump for a week, wound covered by hyaluronan or chitosan membrane, up to 10 days
  fibrin network or strands of granulation tissue between the stomach and the liver, the intestines and the omentum: No fibrin network or strands of granulation tissue could be detected

## streptokinase: fibrinolytic agent, purchased from Sigma Chemical Co
[3]; intraperitoneal minipump, outlet connected to surface of chitosan membrane (or gel), up to 10 days
  fibrin-platelet network or strands of granulation tissue between the stomach and the liver, the intestines and the omentum: No fibrin-platelet network nor any strands of granulation tissue could be detected
[3]; minipump in abdominal cavity, outlet free and open, wound covered by chitosan membrane or gel, up to 10 days
  fibrin network or strands of newly formed granulation tissue connecting the stomach with the liver, the intestines and the omentum: No fibrin network, nor any strands of newly formed granulation tissue, could be detected
